From ChEMBL document CHEMBL1201862, “PubChem BioAssay data set” (2004) come the findings set out here.

Among the test systems are HCT-15; HOP-62; HOP-92; Hs-578T; LOX IMVI; MCF7; Malme-3M; NCI-H23; PC-3; RPMI-8226; SN12C; SW-620; TK-10; UACC-257; UO-31; MOLT-4; OVCAR-3; RXF 393.
What all share (experiment): inhibition of tumour cell growth, NCI panel, 48 h

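Method: 48-hour compound exposure of cells in 96-well plates, five concentrations, linear interpolation of endpoints. GI50 is the concentration that inhibits growth by half.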 Calls of active or inactive are those of the source. No stated cut-off is given here; in the data, active = GI50 up to about 1.1 µM and inactive = higher.

Turning to `Cc1cc(-c2cscn2)c(O)c([N+](=O)[O-])c1`, the GI50 was 38.4 µM with HCT-15; 52.7 µM (inactive) with HOP-62; 93.5 µM (inactive) with HOP-92; 90.8 µM (inactive) in the test with Hs-578T; 29.4 µM (inactive) with LOX IMVI; 21.4 µM (inactive) in the test on MCF7. The GI50 in the test with Malme-3M was 70.6 µM (inactive); with NCI-H23, 58.3 µM (inactive); in the test with PC-3, 41.4 µM (inactive); with RPMI-8226 it was 52.6 µM (inactive); in the test with SN12C, 45 µM (inactive); in the test on SW-620 it was 75.7 µM (inactive). For the same molecule, the GI50 was 52.7 µM (inactive) with TK-10, 63.8 µM (inactive) with UACC-257 and 50.2 µM (inactive) with UO-31.

As to `C=C1CC(COc2ccc3c(C)c(Cl)c(=O)oc3c2)(c2ccccc2)OC1=O` (configuration not stated), the GI50 in the test with HCT-15 was 2.26 µM; in the test on HOP-62 it was 7.03 µM (inactive); in the test on HOP-92, 1.47 µM (inactive); with Hs-578T it was 5.58 µM (inactive); in the test on LOX IMVI, 0.887 µM (active); with MCF7, 1.08 µM (active). Besides, the GI50 is 0.805 µM (active) in the test on MOLT-4; 1.67 µM (inactive) in the test on Malme-3M; 1.57 µM (inactive) with NCI-H23; 2.14 µM (inactive) in the test with OVCAR-3; 1.9 µM (inactive) in the test with PC-3; 0.442 µM (active) in the test with RPMI-8226. Moreover, the GI50 is 6.1 µM (inactive) with SN12C; 0.69 µM (active) in the test with SW-620; 1.53 µM (inactive) with TK-10; 1.61 µM (inactive) in the test with UACC-257; 3.33 µM (inactive) with UO-31.

`CC(C)COP(C)(=O)C(N)(C(F)(F)F)C(F)(F)F` (configuration not stated): the GI50 is > 100 µM in the test on HCT-15; > 100 µM (inactive) in the test with HOP-62; > 100 µM (inactive) in the test with HOP-92; > 100 µM (inactive) in the test on Hs-578T; > 100 µM (inactive) in the test on LOX IMVI; > 100 µM (inactive) in the test with MCF7. For the same molecule, the GI50 with MOLT-4, in the test on Malme-3M, in the test with NCI-H23, in the test on OVCAR-3, in the test with PC-3 and in the test with RPMI-8226 was > 100 µM (inactive) in each case. The GI50 in the test on SN12C, in the test on SW-620, with TK-10, in the test with UACC-257 and with UO-31 was > 100 µM (inactive) each time.

As for `CCSCCCC(=O)O`, the GI50 in the test on HCT-15 is > 100 µM; with HOP-62 it was > 100 µM (inactive); in the test on Hs-578T it was > 100 µM (inactive); in the test with LOX IMVI it was > 100 µM (inactive); with MCF7, > 100 µM (inactive); with MOLT-4, > 100 µM (inactive). Moreover, the GI50 in the test on Malme-3M, in the test on NCI-H23, with OVCAR-3, with PC-3, in the test with RPMI-8226 and in the test on RXF 393 was > 100 µM (inactive) in each case. The GI50 with SN12C, in the test on SW-620, in the test on TK-10, with UACC-257 and in the test on UO-31 was > 100 µM (inactive) each time.

`COC(=O)c1cc2/c(=N/O)c3ccccc3sc2o1`: the GI50 with HCT-15 is > 100 µM; in the test with HOP-62 it was > 100 µM (inactive); with HOP-92, > 100 µM (inactive); with Hs-578T, 55.5 µM (inactive); in the test with LOX IMVI, > 100 µM (inactive); in the test on MCF7, > 100 µM (inactive). In addition, the GI50 with MOLT-4, in the test on Malme-3M, in the test with NCI-H23, with OVCAR-3, in the test with PC-3 and with RPMI-8226 was > 100 µM (inactive) in each case. The GI50 with SN12C, in the test with SW-620, in the test with TK-10 and with UACC-257 was > 100 µM (inactive) in each case.
